US20240174622A1, “COMPOUND AND RADIOACTIVE LABELING COMPOUND” (NIHON MEDI-PHYSICS CO., LTD., priority 2021, published 2024)
Values joined by “and” are separate entries in the source; they are usually repeats but may differ in a detail not shown here. Equal values may be shown once.

Tests used:
[1] = test system: LNCaP tumor-transplanted mouse; assay: Internal radioactivity distribution using LNCaP tumor-transplanted mouse; format: in vivo
Method in brief: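 Biodistribution is given as percent injected dose per gram of tissue, measured in blood and organs harvested at time points from 1 h to 192 h. Radiotracers were given by tail-vein injection in saline at 185–259 kBq, n=2–3. Hosts were male CB17 SCID mice carrying LNCaP or PC-3 tumours implanted s.c. in Matrigel 40–60 days earlier.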

[2] = test system: PC-3 tumor-transplanted mouse; assay: Internal radioactivity distribution using PC-3 tumor-transplanted mouse; format: in vivo
Experimental: (§1) The animal test was performed in compliance with the guidelines of Kyoto University Animal Experiment Committee. Male CB17/IcrJcl-Prkdc^scid mice were purchased from CLEA Japan, Inc. The animals were kept under 12 h/12 h, day/night cycle conditions and fed ad libitum with food and water. LNCaP cells (1.0×10^7 cells/mouse) or PC-3 cells (1.0×10^7 cells/mouse) were suspended in a mixture of PBS and Matrigel manufactured by Corning Life Sciences (1:1, 150 μL) and the suspension was subcutaneously transplanted to the right shoulder of mice under isoflurane anesthesia. Thereafter, the mice were kept for 40 to 60 days.
LNCaP or PC-3 tumor-implanted mice were administered saline solutions (185 kBq, 100 μL) of [^111In]In-PSMA-DA1 or [^111In]In-PSMA-DB from the tail vein (n=3 each). Mice were euthanized 1, 4, 24, 48, 96, and 192 hours after administration. Thereafter, blood and each organ were recovered, and the mass and radioactivity of the organs were measured.
The percentage (% ID) of the radioactivity amount to the administered radioactivity amount (injected dose) is shown as the value (% ID/g) divided by the blood mass or the organ mass (g).
as §1, with “LNCaP cells (4.3×10^6 cells/mouse) or” for “LNCaP cells (1.0×10^7 cells/mouse) or”, “PC-3 cells (3.3×10^6 cells/mouse) were” for “PC-3 cells (1.0×10^7 cells/mouse) were”, “shoulder of CB17/IcrJcl-Prkdc^scid mice under” for “shoulder of mice under”
Mice were euthanized 1, 4, 24, 48, 96, and 192 hours after administration. Thereafter, blood and each organ were recovered, and the mass and radioactivity of the organs were measured.
The results are shown in Table 13 (Mean value±standard deviation, n=3).

[3] = 24 h after administration, PC-3 tumor-transplanted mice

Compound O=C(O)CC[C@H](NC(=O)N[C@@H](CCCCNC(=O)[C@H](Cc1ccc2ccccc2c1)NC(=O)[C@H]1CC[C@H](CNC(=O)CCC(C(=O)O)N2CCN(CC(=O)O)CCN(C(CCC(=O)N[C@@H](CCCCNC(=O)CCCc3ccc(I)cc3)C(=O)O)C(=O)O)CCN(CC(=O)O)CC2)CC1)C(=O)O)C(=O)O (some centres unmarked) [[^111In]In-PSMA-NAT-DA1, metal not drawn] has a Blood ([1]; 1 h after administration) of 39.8 ± 2.91 % ID/g, a Brain ([1]; 1 h after administration) of 0.63 ± 0.03 % ID/g and a Heart ([1]; 1 h after administration) of 10.8 ± 1.31 % ID/g. For the same compound, the Intestine ([1]; 1 h after administration) was 3.40 ± 0.24 % ID/g, the Kidney ([1]; 1 h after administration) was 41.5 ± 4.27 % ID/g and the “LNCaP Tumor” value ([1]; 1 h after administration) was 23.0 ± 2.20 % ID/g. The Liver ([1]; 1 h after administration) was 8.24 ± 2.38 % ID/g, the Lung ([1]; 1 h after administration) was 28.1 ± 8.65 % ID/g and the Muscle ([1]; 1 h after administration) was 2.82 ± 0.55 % ID/g. The Pancreas ([1]; 1 h after administration) was 7.32 ± 1.27 % ID/g, the Spleen ([1]; 1 h after administration) was 31.2 ± 2.84 % ID/g and the “Stomach (% ID)” value ([1]; 1 h after administration) was 0.94 ± 0.35 % ID. The Blood ([1]; 4 h after administration) was 38.8 ± 8.25 % ID/g, the Brain ([1]; 4 h after administration) was 0.83 ± 0.20 % ID/g and the Heart ([1]; 4 h after administration) was 12.2 ± 2.44 % ID/g. The Intestine ([1]; 4 h after administration) was 3.47 ± 0.42 % ID/g, the Kidney ([1]; 4 h after administration) was 66.2 ± 13.0 % ID/g and the “LNCaP Tumor” value ([1]; 4 h after administration) was 43.6 ± 8.49 % ID/g. For the same compound, the Liver ([1]; 4 h after administration) was 8.38 ± 2.27 % ID/g, the Lung ([1]; 4 h after administration) was 26.5 ± 5.70 % ID/g and the Muscle ([1]; 4 h after administration) was 3.69 ± 0.83 % ID/g. For the same compound, the Pancreas ([1]; 4 h after administration) was 5.85 ± 1.34 % ID/g, the Spleen ([1]; 4 h after administration) was 23.0 ± 3.16 % ID/g and the “Stomach (% ID)” value ([1]; 4 h after administration) was 1.32 ± 0.19 % ID. For the same compound, the Blood ([1]; 24 h after administration) was 10.9 ± 5.55 % ID/g, the Brain ([1]; 24 h after administration) was 0.27 ± 0.13 % ID/g and the Heart ([1]; 24 h after administration) was 3.14 ± 1.52 % ID/g. For the same compound, the Intestine ([1]; 24 h after administration) was 1.26 ± 0.70 % ID/g, the Kidney ([1]; 24 h after administration) was 37.1 ± 19.3 % ID/g and the “LNCaP Tumor” value ([1]; 24 h after administration) was 51.9 ± 39.3 % ID/g. It also gave a Liver ([1]; 24 h after administration) of 2.73 ± 1.08 % ID/g, a Lung ([1]; 24 h after administration) of 8.76 ± 4.02 % ID/g and a Muscle ([1]; 24 h after administration) of 1.23 ± 0.36 % ID/g. For the same compound, the Spleen ([1]; 24 h after administration) was 13.5 ± 8.18 % ID/g, the “Stomach (% ID)” value ([1]; 24 h after administration) was 0.28 ± 0.16 % ID and the Blood ([1]; 48 h after administration) was 12.3 % ID/g and 12.3 ± 1.56 % ID/g. It also gave a Brain ([1]; 48 h after administration) of 0.45 ± 0.03 % ID/g, a Heart ([1]; 48 h after administration) of 4.68 ± 0.92 % ID/g and an Intestine ([1]; 48 h after administration) of 1.39 ± 0.06 % ID/g. The Kidney ([1]; 48 h after administration) was 79.0 ± 6.78 % ID/g, the “LNCaP Tumor” value ([1]; 48 h after administration) was 131.6 ± 22.0 % ID/g and the Liver ([1]; 48 h after administration) was 4.49 ± 0.71 % ID/g. The Lung ([1]; 48 h after administration) was 11.1 ± 2.24 % ID/g, the Muscle ([1]; 48 h after administration) was 1.48 ± 0.31 % ID/g and the Pancreas ([1]; 48 h after administration) was 2.26 ± 0.15 % ID/g. For the same compound, the Spleen ([1]; 48 h after administration) was 17.8 ± 1.05 % ID/g, the “Stomach (% ID)” value ([1]; 48 h after administration) was 0.44 ± 0.09 % ID and the Blood ([1]; 96 h after administration) was 4.07 ± 1.37 % ID/g. The Brain ([1]; 96 h after administration) was 0.18 ± 0.04 % ID/g, the Heart ([1]; 96 h after administration) was 2.10 ± 0.83 % ID/g and the Intestine ([1]; 96 h after administration) was 0.86 ± 0.54 % ID/g. The Kidney ([1]; 96 h after administration) was 22.0 ± 14.9 % ID/g, the “LNCaP Tumor” value ([1]; 96 h after administration) was 56.2 ± 35.6 % ID/g and the Liver ([1]; 96 h after administration) was 2.31 ± 0.89 % ID/g. The Lung ([1]; 96 h after administration) was 4.55 ± 2.33 % ID/g, the Muscle ([1]; 96 h after administration) was 0.59 ± 0.09 % ID/g and the Pancreas ([1]; 96 h after administration) was 2.60 ± 3.18 % ID/g. For the same compound, the Spleen ([1]; 96 h after administration) was 6.33 ± 5.25 % ID/g, the “Stomach (% ID)” value ([1]; 96 h after administration) was 0.19 ± 0.10 % ID and the Blood ([1]; 192 h after administration) was 2.47 ± 0.52 % ID/g. For the same compound, the Heart ([1]; 192 h after administration) was 1.19 ± 0.24 % ID/g, the Intestine ([1]; 192 h after administration) was 0.55 ± 0.15 % ID/g and the Kidney ([1]; 192 h after administration) was 11.9 ± 2.08 % ID/g. The “LNCaP Tumor” value ([1]; 192 h after administration) was 35.0 ± 27.3 % ID/g, the Liver ([1]; 192 h after administration) was 2.25 ± 0.45 % ID/g and the Lung ([1]; 192 h after administration) was 2.81 ± 0.36 % ID/g. The Muscle ([1]; 192 h after administration) was 0.33 ± 0.05 % ID/g, the Pancreas ([1]; 192 h after administration) was 0.94 ± 0.32 % ID/g and the Spleen ([1]; 192 h after administration) was 3.77 ± 0.54 % ID/g. For the same compound, the “Stomach (% ID)” value ([1]; 192 h after administration) was 0.12 ± 0.01 % ID, the Blood [2, 3] was 5.73 ± 1.10 % ID/g and the Brain [2, 3] was 0.22 ± 0.03 % ID/g. For the same compound, the Heart [2, 3] was 2.67 ± 0.58 % ID/g, the Intestine [2, 3] was 0.68 ± 0.07 % ID/g and the Kidney [2, 3] was 27.9 ± 6.05 % ID/g. For the same compound, the Liver [2, 3] was 1.74 ± 0.37 % ID/g, the Lung [2, 3] was 7.41 ± 1.13 % ID/g and the Muscle [2, 3] was 0.83 ± 0.26 % ID/g. For the same compound, the “PC-3 Tumor” value [2, 3] was 3.21 ± 1.00 % ID/g, the Pancreas [2, 3] was 1.25 ± 0.04 % ID/g and the Spleen [2, 3] was 6.94 ± 4.55 % ID/g. The “Stomach (% ID)” value [2, 3] was 0.15 ± 0.03 % ID and the “accumulation at the PC-3 tumor compared with the LNCaP tumor at the same time point (in words)” value ([2]; mouse, in vivo) was “significantly lower”.
